According to PubChem BioAssay (NCI):
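Cultured in 96-well plates, cells were exposed to test compound for 48 hours across five concentrations. Abbreviation: GI50, concentration required for 50% inhibition of growth. TGI marks complete inhibition of growth.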

Experiments:
Test in all cases: DTP human tumour cell line panel, 48 h
LOX IMVI melanoma = tested on: LOX IMVI melanoma
SNB-75 CNS = tested on: SNB-75 CNS
UACC-257 melanoma = tested on: UACC-257 melanoma
NCI-H460 lung = tested on: NCI-H460 lung
OVCAR-5 ovarian = tested on: OVCAR-5 ovarian
NCI-H23 lung = tested on: NCI-H23 lung
OVCAR-3 ovarian = tested on: OVCAR-3 ovarian
COLO 205 colon = tested on: COLO 205 colon
SK-MEL-28 melanoma = tested on: SK-MEL-28 melanoma
A549 NSCLC = tested on: A549 NSCLC

Row | Compound | GI50 (LOX IMVI melanoma) [µM] | TGI (LOX IMVI melanoma) [µM] | GI50 (SNB-75 CNS) [µM] | TGI (SNB-75 CNS) [µM] | GI50 (UACC-257 melanoma) [µM] | TGI (UACC-257 melanoma) [µM] | GI50 (NCI-H460 lung) [µM] | TGI (NCI-H460 lung) [µM] | GI50 (OVCAR-5 ovarian) [µM] | TGI (OVCAR-5 ovarian) [µM] | GI50 (NCI-H23 lung) [µM] | TGI (NCI-H23 lung) [µM] | GI50 (OVCAR-3 ovarian) [µM] | TGI (OVCAR-3 ovarian) [µM] | GI50 (COLO 205 colon) [µM] | TGI (COLO 205 colon) [µM] | GI50 (SK-MEL-28 melanoma) [µM] | TGI (SK-MEL-28 melanoma) [µM] | GI50 (A549 NSCLC) [µM] | TGI (A549 NSCLC) [µM]
1 | COC(=O)c1cc(-c2cc(OC)c(OC)c(OC)c2)[nH]c1N/N=C/c1c(Cl)cccc1Cl | 2.67 | 17.3 | 0.941 | 4.62 | 5.82 | 35.7 | 1.48 | 18.3 | 2.25 | 13.4 | 1.25 | 7.78 | 0.57 | 3.02 | 4.49 | > 68 | 2.8 | 12.4 | 4.97 | 23.3
2 | Cc1cc(NC(=O)NC(=O)c2ccccc2N)ccc1Oc1ncc(Br)cn1 | – | > 67.1 | – | 37.7 | – | 54.2 | – | 14.3 | – | > 100 | – | 0.575 | – | < 0.0173 | – | 0.108 | – | > 100 | – | 20.7
3 | N#Cc1c(N)nc(N2CCOCC2)c(C#N)c1-c1ccc(Cl)cc1 | 29.2 | > 100 | 14.5 | 55.9 | 40.8 | > 100 | 33.2 | > 100 | 80.4 | > 100 | 73.5 | > 100 | 27.8 | > 100 | 48.5 | > 100 | 70.9 | > 100 | 42.6 | > 100
4 | O=c1c(Sc2c(O)c3ccccc3c3ccccc3c2=O)c(O)c2ccccc2c2ccccc12 | – | 66.5 | – | > 100 | – | > 100 | – | > 100 | – | > 100 | – | 94.7 | – | > 100 | – | > 100 | – | > 100 | – | > 100
5 | C=CCN(N=O)C(=O)N(CCCC(NC(C)=O)C(=O)NCc1ccccc1)Cc1ccccc1 (stereo not given) | – | > 100 | – | > 100 | – | > 100 | – | > 100 | – | > 100 | – | > 100 | – | > 100 | – | > 100 | – | > 100 | – | > 100
6 | CC1CC(c2cccc3c2OCO3)=Nc2ccccc2S1 (stereo not given) | – | > 100 | – | > 100 | – | > 100 | – | > 100 | – | > 100 | – | > 100 | – | > 100 | – | > 100 | – | > 100 | – | > 100
7 | CC(=O)NCCSC(=O)c1ccccc1 | – | 0.306 | – | 12.4 | – | 0.419 | – | 6.44 | – | 0.527 | – | 0.191 | – | 0.944 | – | 0.516 | – | 1.14 | – | 2.06
8 | COc1cc2c3c(n(CCCNCC(OC)OC)c(=O)c2cc1OC)-c1cc2c(cc1C3=O)OCO2 | 1.46 | > 29.8 | 17 | > 59.1 | 33.3 | > 89.2 | 0.0972 | 20.5 | 16.9 | 37.8 | 1.84 | 29.9 | 3.81 | 32.7 | 14 | > 61.1 | 18.4 | 36.3 | 11.2 | 37.9
9 | C=C(C)[C@@H]1CC[C@]2(C(=O)NCCNCCNCCN)CC[C@]3(C)[C@H](CC[C@@H]4[C@@]5(C)CC[C@H](O)C(C)(C)[C@@H]5CC[C@]43C)[C@@H]12 | 14.9 | 28.6 | 11.1 | 27.6 | 15.1 | 33.1 | 14.7 | 32 | 18.6 | 35 | 14.7 | 32 | 12.2 | 25.7 | 15.9 | 34.6 | 16 | 30.6 | 4.97 | 21.4
10 | C=CCNCCCN1C(=O)c2ccc3c4c(ccc(c24)C1=O)C(=O)N(CCCNCC=C)C3=O | 0.316 | 0.97 | 0.999 | 2.23 | 0.333 | 1.2 | 0.195 | 0.448 | 0.596 | 4.94 | 0.392 | 1.42 | 0.298 | 0.889 | 0.172 | 0.335 | 1.06 | 2.6 | 0.226 | 0.605
11 | CN1CCN(c2nc(NCCCCNc3ccnc4cc(Cl)ccc34)c3ccccc3n2)CC1 | 1.89 | 4.19 | 2.16 | 10 | 2.03 | 3.9 | 5.14 | 18.3 | 2.98 | 15.8 | 11.7 | 29.7 | 5.36 | 22.6 | 2.1 | 5.46 | 1.85 | 3.57 | 5.19 | 20.5
12 | COC1(O)C(=O)c2ccccc2OC1(OC)c1ccccc1 (stereo not given) | – | > 100 | – | > 100 | – | > 100 | – | > 100 | – | > 100 | – | > 100 | – | > 100 | – | > 100 | – | > 100 | – | > 100
13 | CCc1cccc2c3c(sc12)C(c1ccc(Cl)cc1)C(C#N)=C(N)O3 (stereo not given) | 0.545 | 4.22 | 0.195 | 0.718 | 8.64 | 33.1 | 0.414 | 3.01 | 1.42 | 8.93 | 0.692 | 5.18 | 0.384 | 2.67 | 0.81 | 6.27 | 2.06 | 19.3 | 0.736 | 12.9
14 | NNC(=O)CCC(=O)Nc1cc(Cl)c(Cl)cc1Cl | – | > 100 | – | > 100 | – | > 100 | – | > 100 | – | > 100 | – | > 100 | – | > 100 | – | > 100 | – | > 100 | – | > 100
15 | O=C1/C(=C/c2ccc3c(c2)OCO3)CCC1CN1CCOCC1 (stereo not given) | – | 7.84 | – | 28.7 | – | 22.6 | – | 33.4 | – | 31.8 | – | 25.1 | – | 20.5 | – | 35.8 | – | 10.4 | – | 43.3
